Common to all, as to type: binding
Common to all, as to details: His-tagged TEAD protein, biotinylated lipid pocket probe

Assay [1] has as its target TEAD1 (Homo sapiens, UniProt P28347). In words: TEAD lipid pocket TR-FRET (Lipid HTRF) competition assay, TEAD1. Here is the method: (§1) His-tagged TEAD proteins are pre-incubated with TEAD project compounds for 30 minutes at room temperature. Biotinylated lipid pocket probes are then added to the TEAD/Compound mixture and incubated for 60 minutes at room temperature. The lipid pocket probe competes with the test compound for the TEAD lipid pocket until equilibrium is reached. After 60 minutes, Europium labelled anti-His (Perkin Elmer #ADO 110) and XL665 labelled streptavidin (CIS Bio 610SAXAC) are added to the TEAD/test compound/lipid pocket mixture and incubated for 30 minutes. TR-FRET values are then measured using an EnVision multi-label plate reader (Perkin Elmer Cat #2104-1A.) If the lipid pocket probe binds to TEAD as expected, a TR-FRET signal results from the proximity of Tani-His Eu and XL665. If a TEAD lipid pocket binder such as binds and displaces the lipid pocket probe, the disruption of the TEAD:probe interaction results in a decrease in TR-FRET signal. The potency of compounds as TEAD lipid pocket binders is determined by IC50 value generated using a non-linear 4 parameter curve fit. This assay format enables more sensitive determinations of lipid pocket affinity than the aforementioned TEAD lipid pocket FP assay due to the decreased concentration of TEAD protein required for the TR-FRET assay format.

Assay [2] deals with TEAD2 (Homo sapiens, UniProt Q15562). In words: TEAD lipid pocket TR-FRET (Lipid HTRF) competition assay, TEAD2. The procedure:
as §1

The target of assay [3] is TEAD3 (Homo sapiens, UniProt Q99594). The experiment in a line: TEAD lipid pocket TR-FRET (Lipid HTRF) competition assay, TEAD3. Here is the method:
as §1

Assay [4] addresses TEAD4 (Homo sapiens, UniProt Q15561). In words: TEAD lipid pocket TR-FRET (Lipid HTRF) competition assay, TEAD4. Here is the method:
as §1

Results on nine molecules are retold here after US12643880B2, “Heterobifunctional molecules as TEAD inhibitors” (Genentech, Inc., priority 2020, dated 2026).

Sequence of TEAD3 (Q99594 whole entry, species assumed): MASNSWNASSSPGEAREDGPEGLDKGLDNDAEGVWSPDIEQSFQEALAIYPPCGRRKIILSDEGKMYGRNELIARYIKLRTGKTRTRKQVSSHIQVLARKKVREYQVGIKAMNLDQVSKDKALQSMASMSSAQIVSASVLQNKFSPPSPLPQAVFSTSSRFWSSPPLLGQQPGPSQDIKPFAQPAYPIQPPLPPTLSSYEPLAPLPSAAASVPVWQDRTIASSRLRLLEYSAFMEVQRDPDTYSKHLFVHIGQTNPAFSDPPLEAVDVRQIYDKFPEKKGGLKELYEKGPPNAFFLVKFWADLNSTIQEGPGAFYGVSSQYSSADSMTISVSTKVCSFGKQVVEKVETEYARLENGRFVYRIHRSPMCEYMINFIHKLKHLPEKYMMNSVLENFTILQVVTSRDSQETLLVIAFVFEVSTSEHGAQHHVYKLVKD
Sequence of TEAD1 (P28347 whole entry, species assumed): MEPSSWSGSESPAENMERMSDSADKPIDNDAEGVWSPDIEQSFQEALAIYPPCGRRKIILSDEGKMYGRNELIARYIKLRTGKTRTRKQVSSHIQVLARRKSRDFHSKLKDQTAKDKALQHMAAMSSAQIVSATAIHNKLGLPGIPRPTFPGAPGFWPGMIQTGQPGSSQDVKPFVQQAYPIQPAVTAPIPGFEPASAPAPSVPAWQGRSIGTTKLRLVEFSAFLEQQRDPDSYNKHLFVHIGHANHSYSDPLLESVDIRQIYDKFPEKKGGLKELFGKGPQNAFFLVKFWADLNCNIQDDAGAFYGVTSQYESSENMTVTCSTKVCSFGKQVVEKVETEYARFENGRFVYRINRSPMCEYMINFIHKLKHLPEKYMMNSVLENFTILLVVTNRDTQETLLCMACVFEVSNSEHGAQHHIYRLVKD
Sequence of TEAD4 (Q15561 whole entry, species assumed): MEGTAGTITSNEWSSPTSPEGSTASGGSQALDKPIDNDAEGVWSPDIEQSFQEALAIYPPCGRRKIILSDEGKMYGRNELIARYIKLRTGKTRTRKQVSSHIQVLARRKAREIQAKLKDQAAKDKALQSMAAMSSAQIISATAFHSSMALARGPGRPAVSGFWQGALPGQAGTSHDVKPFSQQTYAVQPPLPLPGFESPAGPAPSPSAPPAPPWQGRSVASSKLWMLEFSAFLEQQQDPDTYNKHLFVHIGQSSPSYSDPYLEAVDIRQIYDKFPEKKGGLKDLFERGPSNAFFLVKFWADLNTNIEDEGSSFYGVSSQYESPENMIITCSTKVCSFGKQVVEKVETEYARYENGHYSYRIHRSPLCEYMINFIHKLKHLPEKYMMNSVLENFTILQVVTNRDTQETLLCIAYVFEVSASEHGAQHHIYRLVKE
Sequence of TEAD2 (Q15562 whole entry, species assumed): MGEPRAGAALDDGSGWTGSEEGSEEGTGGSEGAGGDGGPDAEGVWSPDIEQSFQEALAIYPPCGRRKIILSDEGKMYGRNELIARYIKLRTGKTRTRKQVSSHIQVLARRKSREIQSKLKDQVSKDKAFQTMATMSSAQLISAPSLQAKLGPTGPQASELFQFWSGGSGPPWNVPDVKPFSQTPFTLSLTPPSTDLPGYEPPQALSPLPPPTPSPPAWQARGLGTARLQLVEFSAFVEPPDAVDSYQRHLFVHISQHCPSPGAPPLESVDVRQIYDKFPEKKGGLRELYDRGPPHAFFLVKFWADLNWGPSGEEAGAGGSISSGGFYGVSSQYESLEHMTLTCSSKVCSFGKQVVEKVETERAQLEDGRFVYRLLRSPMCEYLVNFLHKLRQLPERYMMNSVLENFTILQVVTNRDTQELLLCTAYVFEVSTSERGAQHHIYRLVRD

On to `CN[C@@H](C)C(=O)N[C@H](C(=O)N1CCC[C@H]1C(=O)Nc1sc(NC(=O)CCCN(C)C(=O)Cc2cccc(CNC(=O)c3cc(/C=C/[C@H]4CC[C@H](C(F)(F)F)CC4)c(OC)cn3)c2)nc1-c1ccccc1)C1CCCCC1` [Compound 21, N-(3-(2-((4-((5-((S)-1-((S)-2-Cyclohexyl-2-((S)-2-(methylamino)propanamido)acetyl)pyrrolidine-2-carboxamido)-4-phenylthiazol-2-yl)amino)-4-oxobutyl)(methyl)amino)-2-oxoethyl)benzyl)-5-methoxy-4-((E)-2-(trans-4-(trifluoromethyl)cyclohexyl)vinyl)picolinamide], for which the IC50 in assay [1] is 1300 nM; in assay [2], 1000 nM; in assay [3], 6200 nM; in assay [4] it was 430 nM.
The matching figures for `CN[C@@H](C)C(=O)N[C@H](C(=O)N1CCC[C@H]1C(=O)Nc1sc(NC(=O)COCCOCCOCCOCCOCCN(C)C(=O)Cc2cccc(CNC(=O)c3cc(/C=C/[C@H]4CC[C@H](C(F)(F)F)CC4)c(OC)cn3)c2)nc1-c1ccccc1)C1CCCCC1` [Compound 19, N-(3-(20-((5-((S)-1-((S)-2-Cyclohexyl-2-((S)-2-(methylamino)propanamido)acetyl)pyrrolidine-2-carboxamido)-4-phenylthiazol-2-yl)amino)-3-methyl-2,20-dioxo-6,9,12,15,18-pentaoxa-3-azaicosyl)benzyl)-5-methoxy-4-((E)-2-(trans-4-(trifluoromethyl)cyclohexyl)vinyl)picolinamide]: 540 nM, 360 nM, 4100 nM and 140 nM.
The matching figures for `COc1cnc(C(=O)NCc2cccc(CC(=O)NCCCCCCCCC(=O)N[C@H](C(=O)N3C[C@H](O)C[C@H]3C(=O)NCc3ccc(-c4scnc4C)cc3)C(C)(C)C)c2)cc1/C=C/[C@H]1CC[C@H](C(F)(F)F)CC1` [Compound 13, N-(3-(2-((9-(((S)-1-((2S,4R)-4-Hydroxy-2-((4-(4-methylthiazol-5-yl)benzyl)carbamoyl)pyrrolidin-1-yl)-3,3-dimethyl-1-oxobutan-2-yl)amino)-9-oxononyl)amino)-2-oxoethyl)benzyl)-5-methoxy-4-((E)-2-(trans-4-(trifluoromethyl)cyclohexyl)vinyl)picolinamide]: 980 nM, 460 nM, 4030 nM and 220 nM.
As for `COc1cnc(C(=O)NCc2cccc(CC(=O)NCCOCCOCCOCCOCCOCC(=O)N[C@H](C(=O)N3C[C@H](O)C[C@H]3C(=O)NCc3ccc(-c4scnc4C)cc3)C(C)(C)C)c2)cc1/C=C/[C@H]1CC[C@H](C(F)(F)F)CC1` [Compound 17, N-(3-((S)-22-((2S,4R)-4-Hydroxy-2-((4-(4-methylthiazol-5-yl)benzyl)carbamoyl)pyrrolidine-1-carbonyl)-23,23-dimethyl-2,20-dioxo-6,9,12,15,18-pentaoxa-3,21-diazatetracosyl)benzyl)-5-methoxy-4-((E)-2-(trans-4-(trifluoromethyl)cyclohexyl)vinyl)picolinamide], the IC50 in assay [1] amounted to 280 nM; in assay [2], 90 nM; in assay [3], 1500 nM; in assay [4], 40 nM.
For `COc1cnc(C(=O)NCc2cccc(CC(=O)N(C)CCOCCOCCOCCOc3ccc4c(c3)C(=O)N(C3CCC(=O)NC3=O)C4=O)c2)cc1/C=C/[C@H]1CC[C@H](C(F)(F)F)CC1` (stereo partly drawn) [Compound 3, N-(3-(14-((2-(2,6-Dioxopiperidin-3-yl)-1,3-dioxoisoindolin-5-yl)oxy)-3-methyl-2-oxo-6,9,12-trioxa-3-azatetradecyl)benzyl)-5-methoxy-4-((E)-2-(trans-4-(trifluoromethyl)cyclohexyl)vinyl)picolinamide] the same measures were 300 nM, 130 nM, 4800 nM and 60 nM.
As for `COc1cnc(C(=O)NCc2cccc(CC(=O)NCCOCCOCC(=O)N[C@H](C(=O)N3C[C@H](O)C[C@H]3C(=O)NCc3ccc(-c4scnc4C)cc3)C(C)(C)C)c2)cc1/C=C/[C@H]1CC[C@H](C(F)(F)F)CC1` [Compound 14, N-(3-((S)-13-((2S,4R)-4-Hydroxy-2-((4-(4-methylthiazol-5-yl)benzyl)carbamoyl)pyrrolidine-1-carbonyl)-14,14-dimethyl-2,11-dioxo-6,9-dioxa-3,12-diazapentadecyl)benzyl)-5-methoxy-4-((E)-2-(trans-4-(trifluoromethyl)cyclohexyl)vinyl)picolinamide], the IC50 is 720 nM in assay [1], 410 nM in assay [2], 3830 nM in assay [3] and 170 nM in assay [4].
The matching figures for `COc1cnc(C(=O)NCc2cccc(CC(=O)N(C)CCCCCCCOc3ccc4c(c3)C(=O)N(C3CCC(=O)NC3=O)C4=O)c2)cc1/C=C/[C@H]1CC[C@H](C(F)(F)F)CC1` (stereo partly drawn) [Compound 9, N-(3-(2-((7-((2-(2,6-Dioxopiperidin-3-yl)-1,3-dioxoisoindolin-5-yl)oxy)heptyl)(methyl)amino)-2-oxoethyl)benzyl)-5-methoxy-4-((E)-2-(trans-4-(trifluoromethyl)cyclohexyl)vinyl)picolinamide]: 1300 nM, 650 nM, 5370 nM and 320 nM.
For `COc1cnc(C(=O)NCc2cccc(CC(=O)NCCCCCCC(=O)N[C@H](C(=O)N3C[C@H](O)C[C@H]3C(=O)NCc3ccc(-c4scnc4C)cc3)C(C)(C)C)c2)cc1/C=C/[C@H]1CC[C@H](C(F)(F)F)CC1` [Compound 12, N-(3-(2-((7-(((S)-1-((2S,4R)-4-Hydroxy-2-((4-(4-methylthiazol-5-yl)benzyl)carbamoyl)pyrrolidin-1-yl)-3,3-dimethyl-1-oxobutan-2-yl)amino)-7-oxoheptyl)amino)-2-oxoethyl)benzyl)-5-methoxy-4-((E)-2-(trans-4-(trifluoromethyl)cyclohexyl)vinyl)picolinamide] the same measures were 1320 nM, 690 nM, 5900 nM and 280 nM.
The matching figures for `CN[C@@H](C)C(=O)N[C@H](C(=O)N1CCC[C@H]1C(=O)Nc1sc(NC(=O)COCCOCCOCCOCCN(C)C(=O)Cc2cccc(CNC(=O)c3cc(/C=C/[C@H]4CC[C@H](C(F)(F)F)CC4)c(OC)cn3)c2)nc1-c1ccccc1)C1CCCCC1` [Compound 18, N-(3-(17-((5-((S)-1-((S)-2-Cyclohexyl-2-((S)-2-(methylamino)propanamido)acetyl)pyrrolidine-2-carboxamido)-4-phenylthiazol-2-yl)amino)-3-methyl-2,17-dioxo-6,9,12,15-tetraoxa-3-azaheptadecyl)benzyl)-5-methoxy-4-((E)-2-(trans-4-(trifluoromethyl)cyclohexyl)vinyl)picolinamide]: 600 nM, 490 nM, 4800 nM and 140 nM.
